US10925851B2 (Regents of the University of Minnesota, priority 2018, dated 2021)
Several values for one entry are separate records, joined by “and”; a condition that tells them apart may be missing. Identical values can stand only once. Entries after “also recorded” stand apart in the source; their conditions may differ. Like-named read-outs stand apart in the source and are kept apart here.

Columns and labels:
male CF1 mice = assay: Hot-plate test (acute thermal pain)
Method: The hot plate was the top surface of an enclosed cylindrical glass bath through which thermostatically controlled hot water was circulated. Under the conditions used, the temperature of the surface of the cylinder was maintained at 55° C. […] Reaction times were also determined twice for each mouse at 15-min intervals half an hour before injecting the drug to establish a baseline reaction time control value. Mice having a mean reaction time greater than 13 seconds were excluded as non-responders.
In this transient pain model, a thermal analgesiometer hot-plate was utilized for the determination of antinociceptive potency of test compounds against acute thermal stimulus. Mice were administered compounds via intraperitoneal (i.p.) or intracerebroventricular (i.c.v.) routes. […] The results are expressed as a percent of the maximum possible effect (% MPE) according to the equation: % MPE=[(Post-drug latency−Pre-drug latency)/(Cutoff−Pre-drug latency)]×100.
The hot-plate was the top surface of an enclosed cylindrical glass bath through which thermostatically controlled hot water was circulated. Under the conditions used, the temperature of the surface of the cylinder was maintained at 55° C. […] Test compounds were administered via intraperitoneal (i.p.) or intracerebroventricular (i.c.v.) routes. […] Animals with a mean reaction time greater than 13 seconds were excluded as non-responders.

Aminopeptidase N (APN) = molecular target: T1, Aminopeptidase N (APN) (Homo sapiens, UniProt P15144); assay: Aminopeptidase N enzyme assay (Ala-AMC substrate, fluorescence); format: biochemical
T1 construct: purchased R&D Systems
T1 sequence (P15144 whole entry): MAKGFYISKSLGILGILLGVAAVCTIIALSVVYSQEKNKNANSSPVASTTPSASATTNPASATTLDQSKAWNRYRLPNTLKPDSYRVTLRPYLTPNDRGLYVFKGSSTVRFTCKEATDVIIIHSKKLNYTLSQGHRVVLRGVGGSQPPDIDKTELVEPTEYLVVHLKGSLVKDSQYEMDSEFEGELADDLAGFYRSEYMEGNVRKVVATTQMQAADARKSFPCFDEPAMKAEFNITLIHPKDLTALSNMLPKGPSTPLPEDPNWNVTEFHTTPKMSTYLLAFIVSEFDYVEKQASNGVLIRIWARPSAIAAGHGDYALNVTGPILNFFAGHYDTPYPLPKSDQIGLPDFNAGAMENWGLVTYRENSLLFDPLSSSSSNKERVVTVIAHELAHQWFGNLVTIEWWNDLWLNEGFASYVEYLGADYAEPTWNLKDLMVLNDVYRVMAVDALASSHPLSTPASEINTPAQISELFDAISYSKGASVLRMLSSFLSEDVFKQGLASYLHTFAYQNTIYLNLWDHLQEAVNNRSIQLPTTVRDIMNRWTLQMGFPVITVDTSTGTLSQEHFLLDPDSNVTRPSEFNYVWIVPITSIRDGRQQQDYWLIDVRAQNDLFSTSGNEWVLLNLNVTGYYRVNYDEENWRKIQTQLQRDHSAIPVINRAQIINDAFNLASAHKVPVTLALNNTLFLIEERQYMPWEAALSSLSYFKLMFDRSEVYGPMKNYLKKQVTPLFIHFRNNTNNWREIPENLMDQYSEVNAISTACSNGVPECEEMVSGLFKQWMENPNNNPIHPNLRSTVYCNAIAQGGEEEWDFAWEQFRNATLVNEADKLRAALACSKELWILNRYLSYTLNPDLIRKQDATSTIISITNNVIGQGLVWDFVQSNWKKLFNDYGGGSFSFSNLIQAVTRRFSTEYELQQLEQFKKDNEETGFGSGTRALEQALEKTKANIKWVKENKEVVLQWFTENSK
Method: Single concentration studies at 10 μM: Aminopeptidase N assays were performed as described previously. Aminopeptidase N was purchased from R&D Systems. Amino-4-methylcoumarin (Ala-AMC) was purchased from Bachem. Briefly, 0.1 μg/μL APN was incubated with 1 μL of 1 mM inhibitor in 50 mM Tris buffer, pH 7.5, in 100 μL volume in a black 384-well plate in duplicate. The reaction was started with the addition of Ala-AMC substrate at a final concentration of 100 μM. The cleavage accumulation AMC was measured by exciting at 380 nm and reading the fluorescence at 460 nm on a Molecular Devices SpectraMax i3 plate reader for 20 min at room temperature. Percent inhibition is calculated in GraphPad Prism software using slopes in the linear range for each inhibitor at 10 μM.
Dose-Response Studies for APN: Aminopeptidase N enzyme assays were performed as described previously.^26 Briefly, 0.1 μg/μL APN was incubated with 1 μL inhibitor in 50 mM Tris buffer, pH 7.5, in 50 μL volume in a black 384-well plate in duplicate. Compounds were tested at 3× dilutions from 100 μM final concentration. The reaction was started with the addition of Ala-AMC substrate at a final concentration of 100 μM. The accumulation of AMC was measured by exciting at 380 nm and reading the fluorescence at 460 nm on a Molecular Devices SpectraMax i3 plate reader for 30 min at room temperature. Steady state velocities were used to determine IC50 values by fitting the velocities vs. inhibitor concentration to the sigmoidal concentration-response curve (variable slope) using GraphPad Prism.

male CF-1 mice = assay: Tail-flick assay (acute thermal pain); format: in vivo; conditions: i.c.v. 100 μg per mouse, 15-90 min
Method: The Tail-Flick test comprises of acute nociception in which the tail of the test animal is thermally stimulated. The time it takes for the animal to either flick or withdraw its tail is recorded as a measure of the response to the thermal stimuli. For this test, mice were gently restrained in a cloth; the tail-flick beam was centered on the dorsal surface of the tail (about 15 mm from the end of the tail). The heat source was activated, and the latency for withdrawal of the tail was recorded. The intensity of the tail-flick beam was adjusted so that the average withdrawal time of the baseline measurement was 2 to 4 sec. For each animal, a baseline response latency was determined in two consecutive responses measured at 5 minute intervals. Animals were tested at 15, 30, 45, 60, 75, and 90 minutes after drug administration.
While hot-plate method is more sensitive at supraspinal level, the tail-flick method mostly embodies a spinal reflex response to noxious stimuli. […] The time it takes for the animal to either flick or withdraw its tail is recorded as a measure of the response to the stimuli. […]
Columbus Instruments tail-flick analgesiometer was employed for this experiment. […] The heat source was activated, and the latency for withdrawal of the tail recorded. […] For each animal, a baseline response latency was determined in two consecutive responses measured at 5 min intervals. […]

mice [1] = assay: Formalin test (persistent pain); format: in vivo, mouse
Method: The formalin test is another variant model for analyzing pain-relieving properties of test compounds in pain produced by inflammation or by injury to peripheral tissue. It is divergent from the acetic acid writhing assay in producing a biphasic response. These pharmacologically distinct phases are generally observed from 1 to 10 minutes, and 15 to 60 minutes post injection. While phase-I is caused by a rapid relay response in pain fibers, sensitization due to peripheral inflammation results in phase-II response in this model.
Mice were injected with 20 μl of 2% buffered formalin solution into the intraplantar region of hind paw of mice and the total time spent in licking and biting of the formalin-treated paw by the animals over the course of 30 min (phase I, acute pain behavior, 0-5 min; phase II, chronic pain behavior, 15-30 min) was recorded. Test compounds were injected 15 min prior to formalin administration. The pain response time (licking time) was recorded for every 5-min period during the 30-min recording for each mouse. The test compounds were dissolved in 50% saline in DMSO solution and delivered systemically

mice [2] = assay: Combination therapy with morphine, isobolographic analysis in tail-flick assay; conditions: for Dose Reduction Index (DRI) Tosedostat: in combination with morphine; for ED50: Mus musculus, ip

SMILES: CC(C)C[C@@H](C(=O)N[C@H](C(=O)OC1CCCC1)c1ccccc1)[C@H](O)C(=O)NO [Tosedostat]
- analgesic effect (% MPE time course) (male CF1 mice; i.c.v. 100 μg per mouse, 15-90 min post injection): did not show analgesic effect; also recorded: nominal analgesic effect; also recorded: did not register substantial analgesic outcome; also recorded: ineffective in furnishing an antinociceptive response
- analgesic effect, single time-point (male CF1 mice; i.c.v. 100 μg per mouse, 15 minutes after injection): nominal analgesic effect
- analgesic response in hot-plate compared to tail-flick experiments (male CF1 mice; i.p., over the course of 90 minutes): about two-fold better analgesic response
- activity against APN (in words) (Aminopeptidase N (APN)): micromolar activity against APN
- IC50 (Aminopeptidase N (APN); dose response, 3x dilutions from 100 μM): 930 nM and 933 nM
- inhibition at 10 µM (Aminopeptidase N (APN); inhibitor 10 μM, read-out: APN @ 10 μM (percent inhibition)): 83%
- analgesic effect (male CF-1 mice): does not impart analgesic effect; also recorded: does not prompt a potent analgesic effect; also recorded: ineffective in furnishing an antinociceptive response
- phase-I response (mice [1]; i.p.): dose-dependent response
- phase-II nociceptive action of formalin (mice [1]; i.p., dosages as low as 1 mg/Kg): completely suppressed
- potency in comparison with APAP (mice [1]; same assay): significantly advantageous in potency
- Dose Reduction Index (DRI) Tosedostat (mice [2]; 15 min): 2.52
- Dose Reduction Index (DRI) Tosedostat (mice [2]; 30 min): 1.91
- Dose Reduction Index (DRI) Tosedostat (mice [2]; 45 min): 1.79
- Dose Reduction Index (DRI) Tosedostat (mice [2]; 60 min): 2.21
- ED50 (mice [2]; 0.25 h, read-out: Tosedostat ED50 (±SEM)): 89 ± 109 mg/kg
- ED50 (mice [2]; 0.5 h, read-out: Tosedostat ED50 (±SEM)): 85.8 ± 132 mg/kg
- ED50 (mice [2]; 0.75 h, read-out: Tosedostat ED50 (±SEM)): 71.5 ± 47.6 mg/kg
- ED50 (mice [2]; 1 h, read-out: ED50, given alone): 58.1 to 82 mg/kg
- ED50 (mice [2]; 1 h, read-out: Tosedostat ED50 (±SEM)): 97.3 ± 33.6 mg/kg
